For orientation: EC50 means the concentration at which the effect is half-maximal.

From patent US12617783B2, “Heterocyclic GLP-1R agonists” (BIOMEA FUSION, INC., priority 2024, dated 2026) come the findings set out here.

Like-named read-outs stand apart in the source and are kept apart here. Bounds are passed on as bounds.

The assay has as its target T1, human GLP-1R (Homo sapiens, UniProt P43220).
T1 construct: host or cells: HEK293
The assay is described as follows: GLP-1R cAMP assay (Example B1a, HTRF, 30 min at room temperature). The assay is classed as cell-based. The gist of the method:
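Competitive HTRF read-out of cAMP after 30 min room-temperature stimulation, BETP absent, of human GLP-1R-HEK293 cells (1,000/well) in HEPES buffer with 500 μM IBMX and 0.1% BSA. Activation normalised to GLP-1(7-37) positive control. EC50 from 4-parameter non-linear regression.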
(In general: Changes in cAMP serve as a functional read-out for many G protein-coupled receptors.)

Where [1] appears, read: cAMP accumulation in HEK293 expressing human GLP-1R, no BETP, 30 min room temperature (Method B1a, compounds ID 1-609), Table 1, read-out: EC50.

T1 sequence (P43220 24-463): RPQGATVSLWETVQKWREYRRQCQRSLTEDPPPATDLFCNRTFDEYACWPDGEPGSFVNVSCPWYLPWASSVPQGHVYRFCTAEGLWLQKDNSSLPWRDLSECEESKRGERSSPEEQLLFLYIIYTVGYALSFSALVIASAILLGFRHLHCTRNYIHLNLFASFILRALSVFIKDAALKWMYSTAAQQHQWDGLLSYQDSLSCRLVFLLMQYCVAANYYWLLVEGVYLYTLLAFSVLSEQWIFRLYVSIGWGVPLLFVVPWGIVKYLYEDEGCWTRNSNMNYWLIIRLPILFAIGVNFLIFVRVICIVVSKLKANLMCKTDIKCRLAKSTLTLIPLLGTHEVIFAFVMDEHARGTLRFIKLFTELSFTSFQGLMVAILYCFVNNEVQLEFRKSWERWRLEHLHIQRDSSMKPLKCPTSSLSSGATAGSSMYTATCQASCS

With `Cc1cc(-n2nc3c(c2-n2ccn(-c4ccc5c(cnn5C)c4F)c2=O)[C@@H]2CC[C@H](C3)N2C(=O)c2cc3cc([C@H]4CCOC(C)(C)C4)ccc3n2[C@@]2(C(=O)NS(C)(=O)=O)C[C@@H]2C)cc(C)c1F` [Compound 201, cis-(1S,2S)-1-[5-[(4S)-2,2-dimethyltetrahydropyran-4-yl]-2-[(1S,8R)-4-(4-fluoro-3,5-dimethyl-phenyl)-3-[3-(4-fluoro-1-methyl-indazol-5-yl)-2-oxo-imidazol-1-yl]-4,5,11-triazatricyclo[6.2.1.02,6]undeca-2,5-diene-11-carbonyl]indol-1-yl]-2-methyl-N-methylsulfonyl-cyclopropanecarboxamide], under setting [1], the EC50 was > 10000 nM.

For `Cc1cc(-n2nc3c(c2-n2ccn(-c4ccc5c(cnn5C)c4F)c2=O)[C@@H]2CC[C@H](C3)N2C(=O)c2cc3cc(C4COC(C)(C)C4)ccc3n2[C@@]2(c3noc(=O)[nH]3)C[C@@H]2C)cc(C)c1F` (stereo partly drawn) [Compound 418, 3-[(1S,2S)-1-[5-(5,5-dimethyltetrahydrofuran-3-yl)-2-[(1S,8R)-4-(4-fluoro-3,5-dimethyl-phenyl)-3-[3-(4-fluoro-1-methyl-indazol-5-yl)-2-oxo-imidazol-1-yl]-4,5,11-triazatricyclo[6.2.1.02,6]undeca-2,5-diene-11-carbonyl]indol-1-yl]-2-methyl-cyclopropyl]-4H-1,2,4-oxadiazol-5-one], the concentration for a half-maximal effect (EC50) under setting [1] came out at 836 nM. Turning to `Cc1cc(-n2nc3c(c2-n2ccn(-c4ccc5c(c4)N(C)C(=O)C54CC4)c2=O)[C@@H]2CCC[C@H](C3)N2C(=O)c2cc3cc([C@H]4CCOC(C)(C)C4)ccc3n2[C@@]2(c3noc(=O)[nH]3)C[C@@H]2C)cc(C)c1F` [Compound 545, 3-[(1S,2S)-1-[5-[(4S)-2,2-dimethyltetrahydropyran-4-yl]-2-[(1S,8R)-4-(4-fluoro-3,5-dimethyl-phenyl)-3-[3-(l′-methyl-2′-oxo-spiro[cyclopropane-1,3′-indoline]-6′-yl)-2-oxo-imidazol-1-yl]-4,5,12-triazatricyclo[6.3.1.02,6]dodeca-2,5-diene-12-carbonyl]indol-1-yl]-2-methyl-cyclopropyl]-4H-1,2,4-oxadiazol-5-one], the EC50 under setting [1] amounted to 307 nM. Same read-out and setting: under `Cc1cc(-n2nc3c(c2-c2ncn(-c4ccc5c(cnn5C)c4F)c2C)[C@H](C)N(C(=O)c2cc4cc(N5C6CCC5COC6)ccc4n2C2(c4noc(=O)[nH]4)CC2)CC3)cc(C)c1F` [Compound 107, 3-[1-[2-[(4S)-2-(4-fluoro-3,5-dimethyl-phenyl)-3-[1-(4-fluoro-1-methyl-indazol-5-yl)-5-methyl-imidazol-4-yl]-4-methyl-6,7-dihydro-4H-pyrazolo[4,3-c]pyridine-5-carbonyl]-5-(3-oxa-8-azabicyclo[3.2.1]octan-8-yl)indol-1-yl]cyclopropyl]-4H-1,2,4-oxadiazol-5-one] stands > 10000 nM.

Regarding `Cc1cc(-n2nc3c(c2-n2ccn(-c4ccc5c(cnn5C)c4F)c2=O)[C@@H]2CC[C@H]([C@@H]3F)N2C(=O)c2cc3cc([C@H]4CCOC(C)(C)C4)ccc3n2[C@@]2(c3noc(=O)[nH]3)C[C@@H]2C)cc(C)c1F` [Compound 515, 3-[(1S,2S)-1-[5-[(4S)-2,2-dimethyltetrahydropyran-4-yl]-2-[(1S,7S,8R)-7-fluoro-4-(4-fluoro-3,5-dimethyl-phenyl)-3-[3-(4-fluoro-1-methyl-indazol-5-yl)-2-oxo-imidazol-1-yl]-4,5,11-triazatricyclo[6.2.1.02,6]undeca-2,5-diene-11-carbonyl]indol-1-yl]-2-methyl-cyclopropyl]-4H-1,2,4-oxadiazol-5-one], under “Table 1d, potency ratio of stereoisomer pair (less potent / more potent isomer)”, the “EC50 Ratio” value was >44. In addition, the EC50 was 120 nM (Table 1d, stereoisomer pairs, read-out: EC50); 120 nM under setting [1]; < 1000 nM (text to Table 1d, bridge atoms configured into the plane or away from the reader, read-out: potency (EC50)). Regarding `Cc1cc(-n2nc3c(c2-n2ccn(-c4ccc5c(cnn5C)c4F)c2=O)[C@@H]2CC[C@H](CC3)N2C(=O)c2cc3cc([C@H]4CCOC(C)(C)C4)ccc3n2[C@@]2(c3noc(=O)[nH]3)C[C@@H]2C)cc(C)c1F` [Compound 523, 3-[(1S,2S)-1-[5-[(4S)-2,2-dimethyltetrahydropyran-4-yl]-2-[(1S,9R)-4-(4-fluoro-3,5-dimethyl-phenyl)-3-[3-(4-fluoro-1-methyl-indazol-5-yl)-2-oxo-imidazol-1-yl]-4,5,12-triazatricyclo[7.2.1.02,6]dodeca-2,5-diene-12-carbonyl]indol-1-yl]-2-methyl-cyclopropyl]-4H-1,2,4-oxadiazol-5-one], under setting [1], the EC50 worked out at 617 nM. `Cc1cc(-n2nc3c(c2-n2ccn(-c4ccc5c(cnn5C)c4F)c2=O)C2CCC(CC3)N2C(=O)c2cc3cc([C@H]4CCOC(C)(C)C4)ccc3n2[C@@]2(c3noc(=O)[nH]3)C[C@@H]2C)cc(C)c1F` (stereo partly drawn) [Compound 522, 3-[(1S,2S)-1-[5-[(4S)-2,2-dimethyltetrahydropyran-4-yl]-2-[4-(4-fluoro-3,5-dimethyl-phenyl)-3-[3-(4-fluoro-1-methyl-indazol-5-yl)-2-oxo-imidazol-1-yl]-4,5,12-triazatricyclo[7.2.1.02,6]dodeca-2,5-diene-12-carbonyl]indol-1-yl]-2-methyl-cyclopropyl]-4H-1,2,4-oxadiazol-5-one]: the EC50 under setting [1] is ≥ 10000 nM. For `Cc1cc(-n2nc3c(c2-n2ccn(-c4ccc5c(cnn5C)c4F)c2=O)[C@@H]2CC[C@H](C3)N2Cc2cc3cc([C@H]4CCOC(C)(C)C4)ccc3n2[C@@]2(c3noc(=O)[nH]3)C[C@@H]2C)cc(C)c1F` [Compound 417, 3-((1S,2S)-1-(5-((S)-2,2-dimethyltetrahydro-2H-pyran-4-yl)-2-(((4S,7R)-3-(3-(4-fluoro-1-methyl-1H-indazol-5-yl)-2-oxo-2,3-dihydro-1H-imidazol-1-yl)-2-(4-fluoro-3,5-dimethylphenyl)-2,4,5,6,7,8-hexahydro-4,7-epiminocyclohepta [c]pyrazol-9-yl)methyl)-1H-indol-1-yl)-2-methylcyclopropyl)-1,2,4-oxadiazol-5(4H)-one], under setting [1], the EC50 came to 110 nM. On the same count and under the same terms, under `Cc1cc(-n2nc3c(c2-n2ccn(-c4ccc5c(cnn5C)c4F)c2=O)CN(Cc2cc4cc([C@H]5CCOC(C)(C)C5)ccc4n2[C@@]2(c4noc(=O)[nH]4)C[C@@H]2C)CCC3)cc(C)c1F` [Compound 432, 3-((1S,2S)-1-(5-((S)-2,2-dimethyltetrahydro-2H-pyran-4-yl)-2-((3-(3-(4-fluoro-1-methyl-1H-indazol-5-yl)-2-oxo-2,3-dihydro-1H-imidazol-1-yl)-2-(4-fluoro-3,5-dimethylphenyl)-2,6,7,8-tetrahydropyrazolo[4,3-c]azepin-5 (4H)-yl)methyl)-1H-indol-1-yl)-2-methylcyclopropyl)-1,2,4-oxadiazol-5(4H)-one] stands 284 nM; under `Cc1cc(-n2nc3c(c2-n2cc(-c4ccc5c(cnn5C)c4F)nn2)[C@H](C)N(C(=O)c2cc4cc([C@H]5CCOC(C)(C)C5)ccc4n2[C@@]2(c4noc(=O)[nH]4)C[C@@H]2C)CC3)cc(C)c1F` [Compound 1, 3-((1S,2S)-1-(5-((S)-2,2-dimethyltetrahydro-2H-pyran-4-yl)-2-((S)-3-(4-(4-fluoro-1-methyl-1H-indazol-5-yl)-1H-1,2,3-triazol-1-yl)-2-(4-fluoro-3,5-dimethylphenyl)-4-methyl-4,5,6,7-tetrahydro-2H-pyrazolo[4,3-c]pyridine-5-carbonyl)-1H-indol-1-yl)-2-methylcyclopropyl)-1,2,4-oxadiazol-5 (4H)-one], > 10000 nM.

`Cc1cc(-n2nc3c(c2-n2ccn(-c4ccc5c(cnn5C)c4F)c2=O)[C@@H]2CC[C@H](C3)N2C(=O)c2cc3cc([C@H]4CCOC(C)(C)C4)ccc3n2[C@@]2(C#N)C[C@@H]2C)cc(C)c1F` [Compound 137, trans-(1S,2S)-1-[5-[(4S)-2,2-dimethyltetrahydropyran-4-yl]-2-[(1S,8R)-4-(4-fluoro-3,5-dimethyl-phenyl)-3-[3-(4-fluoro-1-methyl-indazol-5-yl)-2-oxo-imidazol-1-yl]-4,5,11-triazatricyclo[6.2.1.02,6]undeca-2,5-diene-11-carbonyl]indol-1-yl]-2-methyl-cyclopropanecarbonitrile]: the EC50 under setting [1] was > 10000 nM. Take `Cc1cc(-n2nc3c(c2-n2ccn(-c4ccc5c(cnn5C)c4F)c2=O)[C@@H]2CC[C@H](C3)N2C(=O)c2cc3cc(N4CCOC(C)(C)C4)ccc3n2[C@@]2(c3noc(=O)[nH]3)C[C@@H]2C)cc(C)c1F` [Compound 229, 3-((1S,2S)-1-(5-(2,2-dimethylmorpholino)-2-((4S,7R)-3-(3-(4-fluoro-1-methyl-1H-indazol-5-yl)-2-oxo-2,3-dihydro-1H-imidazol-1-yl)-2-(4-fluoro-3,5-dimethylphenyl)-2,4,5,6,7,8-hexahydro-4,7-epiminocyclohepta [c]pyrazole-9-carbonyl)-1H-indol-1-yl)-2-methylcyclopropyl)-1,2,4-oxadiazol-5 (4H)-one]: the EC50 under setting [1] was 167 nM. The same measure, in the same setting: then `Cc1cc(-n2nc3c(c2-n2ccn(-c4ccc5c(cnn5C)c4F)c2=O)[C@@H]2CC[C@H](C3)N2C(=O)c2cc3nc(C4CCOC(C)(C)C4)sc3n2C2(c3noc(=O)[nH]3)CC2C)cc(C)c1F` (stereo partly drawn) [Compound 202, 3-[1-[2-(2,2-dimethyltetrahydropyran-4-yl)-5-[(1S,8R)-4-(4-fluoro-3,5-dimethyl-phenyl)-3-[3-(4-fluoro-1-methyl-indazol-5-yl)-2-oxo-imidazol-1-yl]-4,5,11-triazatricyclo[6.2.1.02,6]undeca-2,5-diene-11-carbonyl]pyrrolo[3,2-d]thiazol-4-yl]-2-methyl-cyclopropyl]-4H-1,2,4-oxadiazol-5-one], with > 10000 nM.
